Tests used:
[1] = tested on: adults suffering from chronic heartburn or gastroesophagael reflux disorder (GERD); test: Initial studies of d-limonene treatment regimen in 19 adults with chronic heartburn or GERD, symptom ratings on a scale of 1-10; assay type: in vivo, human; details: for % of participants (every day regimen) with symptom rating = 1-2: 1 capsule 1000 mg every day; for % of participants (every other day regimen) with symptom rating = 1-2: 1 capsule 1000 mg every other day; for % of all participants with symptom rating = 1-2: 1000 mg d-limonene capsule every day or every other day; for % of all participants with symptom rating = 1-2 / percentage of participants achieving complete relief of symptoms (rating of 1): all participants
Procedure: Initial studies of the inventive treatment regimen were conducted at different times on 19 adults suffering from chronic heartburn or gastroesophagael reflux disorder (GERD). […] Thirty-seven (37%) of the total participants in these initial studies were male ranging in age from 42 to 73 years (average age=50 years), while sixty-three (63%) of the participants were female ranging in age from 34 to 70 years (average age=43). All of the participants discontinued using their respective treatments of choice (i.e. over-the-counter (OTC) and/or prescription medications) at least one day prior to beginning the inventive treatment regimen. Prior to beginning the treatment regimen, each participant was asked to rate the frequency and severity of his/her gastrointestinal disorder symptoms on a scale of 1-10. For “severity of symptoms,” 1 corresponded to complete relief of symptoms while 10 corresponded to severe, painful symptoms. A rating of 2 would correspond to mild symptoms. For “frequency of symptoms,” 1 corresponded to complete relief of symptoms while 10 corresponded to daily symptoms.
Eleven of the participants were administered 1 capsule of d-limonene every other day for 20 days. Five of the participants were administered 1 capsule of d-limonene every day for 16 to 20 days. Each capsule contained 1000 mg of d-limonene having a purity of from 98.5% to 99.3%.
FIG. 3 is a graph illustrating the percentage of all the participants (i.e. those undergoing the every other day regimen and every day regimen) having a severity rating of 1.

[2] = tested on: persons suffering from diagnosed peptic ulcers; test: Treatment regimen in persons with diagnosed peptic ulcers; assay type: in vivo, human; details: 1,000 mg dose regimen, had to discontinue
Description: The present invention is particularly useful in alleviating the severity and frequency of gastrointestinal disorders. […] As used herein, “gastrointestinal disorder” shall mean mild/moderate heartburn, stomach acid indigestion, and severe heartburn/GERD.

[3] = tested on: participants suffering from mild/moderate heartburn to severe heartburn/GERD; test: Preliminary double-blind placebo study in 13 participants; assay type: in vivo, human; details: 1 capsule with 1 gram of 98% d-limonene, every day/every other day regimens
Procedure: A preliminary double-blind placebo study was conducted on 13 participants suffering from mild/moderate heartburn to severe heartburn/GERD. Seven participants were administered the product and six were administered a placebo. In the “limonene” group (i.e. 1 capsule containing 1 gram of 98% d-limonene), two participants were administered 1 capsule every day for five days followed by 1 capsule every other day for five days. The remaining “limonene” group participants were administered 1 capsule every other day for 20 days. In the “placebo” group, three participants were administered 1 placebo capsule (i.e. gelatin capsule containing soybean oil) daily for five days, followed by 1 capsule every other day for 5 days. Two participants were administered 1 placebo capsule every other day for 20 days while one participant having severe heartburn was administered 1 placebo capsule twice a day for 5 days, followed by 1 capsule every day for 5 days, followed by 1 capsule as needed. As shown in Table 4 (and FIG. 4), a significant difference in results was obtained between the two groups ([…]).

[4] = tested on: inventor with long history of severe heartburn; test: Inventor's own use of limonene for severe heartburn; assay type: in vivo, human; details: 500 mg to 1000 mg every other day for 8-20 days
Procedure: Similar results were obtained on another adult taking 1000 mg every other day as well as on participants of studies discussed in more detail in Examples 1-2.

[5] = In vitro studies on mechanism of action; details: suggested mechanism, coating the stomach wall
Description: The present invention is directed to a method for treating gastrointestinal disorders and comprises the oral administration of a therapeutically effective amount of limonene, preferably a purified form of d-limonene (i.e. at least 98%), to a person in need of such treatment. “Limonene” as used herein shall include both d-limonene and 1-limonene. […] The inventor has discovered that oral administration of a therapeutically effective amount of purified, food grade limonene (preferably at least 98% pure d-limonene), taken once daily or once every other day for 2 to 20 days, will alleviate or eliminate entirely the symptoms, both in terms of frequency and severity, of gastrointestinal disorders, such disorders ranging from mild/moderate heartburn and gastric indigestion to severe heartburn or gastro esophageal reflux disorder (GERD).

[6] = tested on: individuals taking limonene; test: Side effects of limonene having at least 98% purity; assay type: in vivo, human; details: limonene having at least a 98% purity
Description: Any conventional distillation method known by those of ordinary skill in the art for obtaining a highly purified form of d-limonene (about 98% pure) may be employed. Example 3 illustrates one preferred distillation method for removing the majority of contaminants.

C=C(C)[C@H]1CC=C(C)CC1 [d-limonene]
% of participants (every day regimen) with symptom rating = 1-2 ([1]; Day 2): 14% | % of participants (every other day regimen) with symptom rating = 1-2 ([1]; Day 2): 42% | % of participants (every day regimen) with symptom rating = 1-2 ([1]; Day 4): 29% | % of participants (every other day regimen) with symptom rating = 1-2 ([1]; Day 4): 42% | % of all participants with symptom rating = 1-2 ([1]; Day 4): 32% | percentage of participants with severity and frequency symptom ratings of 1-2 ([1]; Day 4, mild/moderate heartburn group): 55% | percentage of participants with severity and frequency symptom ratings of 1-2 ([1]; Day 4, severe heartburn/GERD group): 0% | % of participants (every day regimen) with symptom rating = 1-2 ([1]; Day 7): 57% | % of participants (every other day regimen) with symptom rating = 1-2 ([1]; Day 7): 67% | % of all participants with symptom rating = 1-2 ([1]; Day 7): 63% | percentage of participants with severity and frequency symptom ratings of 1-2 ([1]; Day 7, mild/moderate heartburn group): 82% | percentage of participants with severity and frequency symptom ratings of 1-2 ([1]; Day 7, severe heartburn/GERD group): 38% | % of participants (every day regimen) with symptom rating = 1-2 ([1]; Day 9): 71% | % of participants (every other day regimen) with symptom rating = 1-2 ([1]; Day 9): 75% | % of all participants with symptom rating = 1-2 ([1]; Day 9): 74% | percentage of participants with severity and frequency symptom ratings of 1-2 ([1]; Day 9, mild/moderate heartburn group): 82% | percentage of participants with severity and frequency symptom ratings of 1-2 ([1]; Day 9, severe heartburn/GERD group): 38% | percentage of participants with severity and frequency symptom ratings of 1-2 ([1]; Day 11, mild/moderate heartburn group): 91% | percentage of participants with severity and frequency symptom ratings of 1-2 ([1]; Day 11, severe heartburn/GERD group): 72% | % of participants (every day regimen) with symptom rating = 1-2 ([1]; Day 14): 86% | % of all participants with symptom rating = 1-2 ([1]; Day 14): 89% | percentage of participants with severity and frequency symptom ratings of 1-2 ([1]; Day 15, mild/moderate heartburn group): 91% | percentage of participants with severity and frequency symptom ratings of 1-2 ([1]; Day 15, severe heartburn/GERD group): 88% | percentage of participants achieving complete relief of symptoms (rating of 1) ([1]; day 2): about 20% | percentage of participants achieving complete relief of symptoms (rating of 1) ([1]; day 14): 79% | effect on severity of gastrointestinal symptoms in ulcer sufferers [2]: increase in the severity of gastrointestinal symptoms | Product vs. Placebo result (percentage of participants, rating criterion not given) ([3]; Day 4): 29% | Product vs. Placebo result (percentage of participants, rating criterion not given) ([3]; Day 7): 29% | Product vs. Placebo result (percentage of participants, rating criterion not given) ([3]; Day 9): 71% | Product vs. Placebo result (percentage of participants, rating criterion not given) ([3]; Day 14): 86%

C=C(C)[C@H]1CC=C(C)CC1 [limonene]
severity and frequency of heartburn symptoms [4]: alleviated permanently | effect on gastric acid [5]: neutralizing effect on gastric acid | side effects such as diarrhea and headache [6]: significantly reduced certain side effects
